Data from patent US8952024B2, “Herbicidal pyrimidone derivatives” (E I du Pont de Nemours and Company, priority 2009, dated 2015).

How the values were obtained:
Type in all cases: in vivo
[1] = test system: morningglory (Ipomoea spp.); assay: Test A pre-/postemergence plant response
Outline: (§1)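 Visual injury rating on a 0–100 scale (0 = no effect, 100 = complete control) was made versus untreated controls after about ten days in the greenhouse. Compounds, formulated in a non-phytotoxic solvent mix containing surfactant, were sprayed preemergence onto loam/sand soil and postemergence onto one- to two-leaf plants.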

[2] = test system: barnyardgrass (Echinochloa crus-galli); assay: Test A pre-/postemergence plant response
Outline: as §1

[3] = test system: large crabgrass (Digitaria sanguinalis); assay: Test A pre-/postemergence plant response
Outline: as §1

[4] = test system: giant foxtail (Setaria faberii); assay: Test A pre-/postemergence plant response
Outline: as §1

corn (Zea mays) = assay: Test A pre-/postemergence plant response
Outline: as §1

[5] = test system: velvetleaf (Abutilon theophrasti); assay: Test A pre-/postemergence plant response
Outline: as §1

[6] = test system: wheat (Triticum aestivum); assay: Test A pre-/postemergence plant response
Outline: as §1

[7] = test system: pigweed (Amaranthus retroflexus); assay: Test A pre-/postemergence plant response
Outline: as §1

[8] = test system: barnyardgrass (Echinochloa crus-galli); assay: Test B flooded paddy test; conditions: for Plant response rating, Flood, Barnyardgrass: 250 g ai/ha, flooded paddy test, visual rating on 0 to 100 scale (0 no effect, 100 complete control) after 13 to 15 days; for Plant response rating, Barnyardgrass: Flood (flooded paddy test), 13 to 15 days
Outline: (§2)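 Post-flood paddy application: compounds are introduced into water 3 cm deep over the soil, reaching plants at the 2-leaf stage. The water level is maintained, and after 13–15 days under greenhouse conditions, response is judged by eye relative to controls, where 100 means complete control.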

rice (Oryza sativa) = assay: Test B flooded paddy test; conditions: for Plant response rating, Flood, Rice: 250 g ai/ha, flooded paddy test, visual rating on 0 to 100 scale (0 no effect, 100 complete control) after 13 to 15 days; for Plant response rating, Rice: Flood (flooded paddy test), 13 to 15 days
Outline: as §2

[9] = test system: ducksalad (Heteranthera limosa); assay: Test B flooded paddy test; conditions: for Plant response rating, Flood, Ducksalad: 250 g ai/ha, flooded paddy test, visual rating on 0 to 100 scale (0 no effect, 100 complete control) after 13 to 15 days; for Plant response rating, Ducksalad: Flood (flooded paddy test), 13 to 15 days
Outline: as §2

[10] = test system: umbrella sedge (Cyperus difformis); assay: Test B flooded paddy test; conditions: for Plant response rating, Flood, Sedge, Umbrella: 250 g ai/ha, flooded paddy test, visual rating on 0 to 100 scale (0 no effect, 100 complete control) after 13 to 15 days; for Plant response rating, Sedge, Umbrella: Flood (flooded paddy test), 13 to 15 days
Outline: as §2

[11] = Postemergence, 125 g ai/ha, visual injury, 0 to 100 scale (0 no effect, 100 complete control), approx. ten days
[12] = Postemergence, 500 g ai/ha, 0 to 100 scale, 0 = no effect, 100 = complete control, approx. ten days
[13] = Preemergence, 125 g ai/ha, 0 to 100 scale, 0 = no effect, 100 = complete control
[14] = Preemergence, 500 g ai/ha, visual injury, 0 to 100 scale (0 no effect, 100 complete control), approx. ten days
[15] = 31 g ai/ha, scale of 0 to 100 where 0 is no effect and 100 is complete control
[16] = 62 g ai/ha, scale 0 to 100, 0 is no effect, 100 is complete control
[17] = 125 g ai/ha, scale 0 to 100, 0 is no effect, 100 is complete control
[18] = 62 g ai/ha, scale of 0 to 100 where 0 is no effect and 100 is complete control

O=C1CCCC(O)=C1C(=O)c1cnc(-c2ccccc2)n(-c2cccc(F)c2)c1=O [Compound 22]
Morningglory plant response rating [1, 11]: 30
Plant response rating, Morningglory [1, 12]: 100
Plant response rating, Morningglory [1, 13]: 20
Plant response rating, Morningglory [1, 14]: 70
Barnyardgrass plant response rating [2, 11]: 10
Plant response rating, Barnyardgrass [2, 12]: 70
Plant response rating, Barnyardgrass [2, 13]: 10
Plant response rating, Barnyardgrass [2, 14]: 100
Crabgrass, Large plant response rating [3, 11]: 40
Plant response rating, Crabgrass, Large [3, 12]: 80
Plant response rating, Crabgrass, Large [3, 13]: 40
Plant response rating, Crabgrass, Large [3, 14]: 90
Foxtail, Giant plant response rating [4, 11]: 30
Plant response rating, Foxtail, Giant [4, 12]: 80
Plant response rating, Foxtail, Giant [4, 13]: 20
Plant response rating, Foxtail, Giant [4, 14]: 80
Corn plant response rating (corn (Zea mays); [11]): 0
Plant response rating, Corn (corn (Zea mays); [12]): 40
Plant response rating, Corn (corn (Zea mays); [13]): 0
Plant response rating, Corn (corn (Zea mays); [14]): 0
Velvetleaf plant response rating [5, 11]: 100
Plant response rating, Velvetleaf [5, 12]: 100
Plant response rating, Velvetleaf [5, 13]: 30
Plant response rating, Velvetleaf [5, 14]: 100
Wheat plant response rating [6, 11]: 0
Plant response rating, Wheat [6, 12]: 0
Plant response rating, Wheat [6, 13]: 0
Plant response rating, Wheat [6, 14]: 0
Pigweed plant response rating [7, 11]: 80
Plant response rating, Pigweed [7, 12]: 100
Plant response rating, Pigweed [7, 13]: 70
Plant response rating, Pigweed [7, 14]: 90
Plant response rating, Flood, Barnyardgrass [8]: 0
Plant response rating, Barnyardgrass [8, 15]: 0
Plant response rating, Barnyardgrass [8, 16]: 0
Plant response rating, Barnyardgrass [8, 17]: 0
Plant response rating, Flood, Rice (rice (Oryza sativa)): 0
Plant response rating, Rice (rice (Oryza sativa); [15]): 0
Plant response rating, Rice (rice (Oryza sativa); [16]): 0
Plant response rating, Rice (rice (Oryza sativa); [17]): 0
Plant response rating, Flood, Ducksalad [9]: 60
Plant response rating, Ducksalad [9, 15]: 0
Plant response rating, Ducksalad [9, 16]: 20
Plant response rating, Ducksalad [9, 17]: 30
Plant response rating, Flood, Sedge, Umbrella [10]: 65
Plant response rating, Sedge, Umbrella [10, 15]: 0
Plant response rating, Sedge, Umbrella [10, 16]: 30
Plant response rating, Sedge, Umbrella [10, 17]: 40

CCCCCCc1ncc(C(=O)C2=C(O)CCCC2=O)c(=O)n1-c1ccccc1 [Compound 54]
Morningglory plant response rating [1, 11]: 40
Plant response rating, Morningglory [1, 12]: 100
Plant response rating, Morningglory [1, 13]: 0
Plant response rating, Morningglory [1, 14]: 0
Barnyardgrass plant response rating [2, 11]: 10
Plant response rating, Barnyardgrass [2, 12]: 60
Plant response rating, Barnyardgrass [2, 13]: 0
Plant response rating, Barnyardgrass [2, 14]: 10
Crabgrass, Large plant response rating [3, 11]: 40
Plant response rating, Crabgrass, Large [3, 12]: 70
Plant response rating, Crabgrass, Large [3, 13]: 0
Plant response rating, Crabgrass, Large [3, 14]: 30
Foxtail, Giant plant response rating [4, 11]: 10
Plant response rating, Foxtail, Giant [4, 12]: 60
Plant response rating, Foxtail, Giant [4, 13]: 0
Plant response rating, Foxtail, Giant [4, 14]: 0
Corn plant response rating (corn (Zea mays); [11]): 0
Plant response rating, Corn (corn (Zea mays); [12]): 10
Plant response rating, Corn (corn (Zea mays); [13]): 0
Plant response rating, Corn (corn (Zea mays); [14]): 0
Velvetleaf plant response rating [5, 11]: 100
Plant response rating, Velvetleaf [5, 12]: 100
Plant response rating, Velvetleaf [5, 13]: 60
Plant response rating, Velvetleaf [5, 14]: 70
Wheat plant response rating [6, 11]: 0
Plant response rating, Wheat [6, 12]: 0
Plant response rating, Wheat [6, 13]: 0
Plant response rating, Wheat [6, 14]: 0
Pigweed plant response rating [7, 11]: 100
Plant response rating, Pigweed [7, 12]: 100
Plant response rating, Pigweed [7, 13]: 80
Plant response rating, Pigweed [7, 14]: 90
Plant response rating, Flood, Barnyardgrass [8]: 0
Plant response rating, Barnyardgrass [8, 15]: 0
Plant response rating, Barnyardgrass [8, 18]: 0
Plant response rating, Barnyardgrass [8, 17]: 0
Plant response rating, Flood, Rice (rice (Oryza sativa)): 0
Plant response rating, Rice (rice (Oryza sativa); [15]): 0
Plant response rating, Rice (rice (Oryza sativa); [18]): 0
Plant response rating, Rice (rice (Oryza sativa); [17]): 0
Plant response rating, Flood, Ducksalad [9]: 40
Plant response rating, Ducksalad [9, 15]: 0
Plant response rating, Ducksalad [9, 18]: 0
Plant response rating, Ducksalad [9, 17]: 30
Plant response rating, Flood, Sedge, Umbrella [10]: 40
Plant response rating, Sedge, Umbrella [10, 15]: 0
Plant response rating, Sedge, Umbrella [10, 18]: 0
Plant response rating, Sedge, Umbrella [10, 17]: 0
